Data on one substance can be found in patent publication US6617314B2, “Injectable formulations of avermectins and milbemycins” (Bayer Aktiengesellschaft, priority 1996, dated 2003).

This series in a line: solubility of ivermectin in solvents. The series is classed as physicochemical. From the text:
The solubility of ivermectin in benzyl alcohol is >40% by weight and in castor oil ˜4% by weight.

On to 22,23-dihydroavermectin B1 [ivermectin], for which the “solubility in benzyl alcohol” value (solvent benzyl alcohol) is listed as > 40 % by weight. Also, for the setting “solvent castor oil”, the “solubility in castor oil” value is reported as ~4 % by weight.
